The values below come from patent US20130096067A1, “DROSOPHILA TUMOR STEM CELL MODEL AND USES THEREOF” (priority 2011, published 2013).

This test has as its system Raf-1^gof intestinal tumors. The settings on record: for Fold: Table 3 summary of hits, Screen ICCB, luciferase relative to DMSO, fed three consecutive days in vials.
Where [1] appears, read: screen of 480 ICCB compounds in vials, compounds fed to flies with one-day old Raf-1^gof tumors, assessed three days later, esg-Gal4 luciferase.
Setting [2] is: screen of 480 ICCB compounds in vials, compounds fed to flies with one-day old Raf-1^gof tumors, assessed three days later, esg-Gal4 luciferase, averaged from multiple wells.
[3] abbreviates: ICCB compounds fed in vials to flies with one-day old Raf-1^gof tumors, assessed three days later.
Where [4] appears, read: ICCB compounds fed in vials to flies with one-day old Raf-1^gof tumors, assessed three days later, averaged from multiple wells.

Like-named read-outs stand apart in the source and are kept apart here.
Wherever Fold (luciferase activity relative to DMSO controls) is given: test concentration or dose not given here.
Wherever Fold (luciferase activity, fold difference relative to DMSO controls) is given: test concentration or dose not given here.
Wherever Log2 (fold) (luciferase activity, log2 of the fold difference relative to DMSO controls) is given: test concentration or dose not given here.
Wherever Log2 (fold) of luciferase activity relative to DMSO controls is given: test concentration or dose not given here.

In turn, `Oc1cc(O)cc(/C=C/c2ccc(O)c(O)c2)c1` [Piceatannol, reference compound] registered a Fold of 0.493 fold. The “Log2 (fold) (luciferase activity, log2 of the fold difference relative to DMSO controls)” value under setting [1] was −1.020. For the same compound, under setting [2], the “Fold (luciferase activity, fold difference relative to DMSO controls)” value is 0.493.
For the compound `CCCCC[C@H](O)/C=C/[C@@H]1[C@H]2C/C(=C/CCCC(=O)[O-])O[C@H]2C[C@H]1O.[Na+]` [PROSTAGLANDIN I2 Na], the “Log2 (fold) (luciferase activity, log2 of the fold difference relative to DMSO controls)” value under setting [1] is recorded as −0.244. In addition, the “Fold (luciferase activity, fold difference relative to DMSO controls)” value under setting [2] is listed as 0.844.
For the compound `c1ccc2c(Cc3c[nH]c4ccccc34)c[nH]c2c1` [DIINDOLYLMETHANE], the “Log2 (fold) of luciferase activity relative to DMSO controls” value under setting [3] was 0.465. For the same compound, the “Fold (luciferase activity relative to DMSO controls)” value under setting [4] is recorded as 1.381 fold.
On to `CS(=O)(=O)Nc1ccc([N+](=O)[O-])cc1Oc1ccccc1` [Nimesulide], for which, under setting [1], the “Log2 (fold) (luciferase activity, log2 of the fold difference relative to DMSO controls)” value is listed as −0.264. The “Fold (luciferase activity, fold difference relative to DMSO controls)” value under setting [2] is reported as 0.833.
For PROSTAGLANDIN J2 the same measures were −0.525 and 0.695.
As to mastoparan, the “Log2 (fold) (luciferase activity, log2 of the fold difference relative to DMSO controls)” value under setting [1] is listed as −0.301. Also, under setting [2], the “Fold (luciferase activity, fold difference relative to DMSO controls)” value is 0.812.
For the compound `CCCCC[C@H](O)C/C=C1/C(=O)C=C[C@@H]1C/C=C\CCCC(=O)O` [D12-PROSTAGLANDIN J2], under “in vivo”, the “Fold (luciferase activity relative to DMSO controls)” value was determined as 0.988 fold and the “Log2 (fold) of luciferase activity relative to DMSO controls” value is on record as −0.017.
For `CC[C@H](CO)Nc1nc(NCc2ccccc2)c2ncn(C(C)C)c2n1` [roscovitine], for the setting “in vivo”, the “Fold (luciferase activity, fold difference relative to DMSO controls)” value came out at 0.659 and the “Log2 (fold) (luciferase activity, log2 of the fold difference relative to DMSO controls)” value is on record as −0.602.
Turning to `CCCCC[C@H](O)/C=C/C=C\CCCCCCCC(=O)O` [13(S)-HODE], the “Log2 (fold) of luciferase activity relative to DMSO controls” value under setting [3] is −0.141. The “Fold (luciferase activity relative to DMSO controls)” value under setting [4] was determined as 0.907 fold.
For the compound `COc1cccc2c1cc([N+](=O)[O-])c1c(C(=O)O)cc3c(c12)OCO3` [aristolochic acid, reference compound], the Fold is reported as 0.422 fold. In addition, under setting [1], the “Log2 (fold) (luciferase activity, log2 of the fold difference relative to DMSO controls)” value is on record as −1.243. Moreover, the “Fold (luciferase activity, fold difference relative to DMSO controls)” value under setting [2] is 0.422.
For `C=C1[C@@H](C)[C@H]2[C@H](Cc3ccccc3)NC(=O)[C@]23OC(=O)/C=C/[C@H](O)CCC[C@@H](C)C/C=C/[C@H]3[C@@H]1O` [cytochalasin B], under setting [1], the “Log2 (fold) (luciferase activity, log2 of the fold difference relative to DMSO controls)” value is on record as −0.677. Moreover, under setting [2], the “Fold (luciferase activity, fold difference relative to DMSO controls)” value is listed as 0.625.
Consider `CCCCCCCCCC(=O)N[C@H](CN1CCOCC1)[C@H](O)c1ccccc1` (racemic) [DL-PDMP], for which the “Log2 (fold) of luciferase activity relative to DMSO controls” value under setting [3] is recorded as 0.078. The “Fold (luciferase activity relative to DMSO controls)” value under setting [4] is 1.056 fold.
With `NC(N)=NCCNS(=O)(=O)c1cccc2cnccc12` [HA-1004], under setting [1], the “Log2 (fold) (luciferase activity, log2 of the fold difference relative to DMSO controls)” value is −0.372. For the same compound, the “Fold (luciferase activity, fold difference relative to DMSO controls)” value under setting [2] stood at 0.773.
Regarding `CCCCC/C=C\C/C=C\CCCCCCCC(=O)NCCO` [ANANDAMIDE (18:2, n-6)], under setting [3], the “Log2 (fold) of luciferase activity relative to DMSO controls” value was −0.101. Besides, the “Fold (luciferase activity relative to DMSO controls)” value under setting [4] is 0.932 fold.
As to `CC(C)=CC[C@@H](O)C1=CC(=O)c2c(O)ccc(O)c2C1=O` [Shikonin], the “Log2 (fold) (luciferase activity, log2 of the fold difference relative to DMSO controls)” value under setting [1] is −0.795. Moreover, the “Fold (luciferase activity, fold difference relative to DMSO controls)” value under setting [2] came out at 0.576.
Consider `CC/C=C\C/C=C\C/C=C\C/C=C\C/C=C\CCCC(=O)O` [EICOSAPENTAENOIC ACID (20:5 n-3)], for which the “Log2 (fold) of luciferase activity relative to DMSO controls” value under setting [3] is 0.024. Under setting [4], the “Fold (luciferase activity relative to DMSO controls)” value is given as 1.017 fold.
For `CCCCCCCCCCCCCCC[C@H](O)[C@@H](N)CO` (racemic) [DL-DIHYDROSPHINGOSINE] the same measures were 0.076 and 1.054 fold.
For the compound `C=C1[C@@H](O)[C@@H]2O[C@]3(CC[C@H](/C=C/[C@@H](C)[C@@H]4CC(C)=C[C@@]5(O[C@H](C[C@@](C)(O)C(=O)O)CC[C@H]5O)O4)O3)CC[C@H]2O[C@@H]1[C@@H](O)C[C@H](C)[C@H]1O[C@@]2(CCCCO2)CC[C@H]1C` [okadaic acid, reference compound], the Fold amounted to 0.305 fold. Also, the “Log2 (fold) (luciferase activity, log2 of the fold difference relative to DMSO controls)” value under setting [1] is recorded as −1.713. Moreover, the “Fold (luciferase activity, fold difference relative to DMSO controls)” value under setting [2] is reported as 0.305.
Consider `CN1C(C(=O)Nc2ccccn2)=C(O)c2ccccc2S1(=O)=O` [piroxicam], for which the “Log2 (fold) of luciferase activity relative to DMSO controls” value under setting [3] is 0.147. Also, under setting [4], the “Fold (luciferase activity relative to DMSO controls)” value stood at 1.107 fold.
As to `N#Cc1cc2c(OCC(O)CN3CCN(C(c4ccccc4)c4ccccc4)CC3)cccc2[nH]1` (stereo not drawn) [SDZ-201106], under “in vivo”, the “Fold (luciferase activity, fold difference relative to DMSO controls)” value was determined as 0.804 and the “Log2 (fold) (luciferase activity, log2 of the fold difference relative to DMSO controls)” value is −0.315.
As for `O=C(O)c1cc(N(Cc2ccccc2O)Cc2cc(O)ccc2O)ccc1O` [Lavendustin A], the “Log2 (fold) (luciferase activity, log2 of the fold difference relative to DMSO controls)” value under setting [1] was −0.297. In addition, the “Fold (luciferase activity, fold difference relative to DMSO controls)” value under setting [2] stood at 0.814.
The corresponding values for `CCCCCCCC/C=C\CCCCCCCC(N)=O` [9,10-OCTADECENOAMIDE] are −0.454 and 0.730.
Consider `Cc1ccc(N(CC2=NCCN2)c2cccc(O)c2)cc1` [PHENTOLAMINE], for which, under setting [1], the “Log2 (fold) (luciferase activity, log2 of the fold difference relative to DMSO controls)” value was −0.321. Besides, the “Fold (luciferase activity, fold difference relative to DMSO controls)” value under setting [2] turned out to be 0.800.
`CCCCC/C=C\C/C=C\C/C=C\C/C=C\CCCC(=O)N[C@H](C)CO` [(R)-METHANANDAMIDE]: the “Log2 (fold) of luciferase activity relative to DMSO controls” value under setting [3] came to 0.068. Also, under setting [4], the “Fold (luciferase activity relative to DMSO controls)” value is 1.049 fold.
For `CCCCCCCCCCCCCCCCCCOC[C@H](COP(=O)([O-])OCC[N+](C)(C)C)OC(C)=O` [PAF C18], under setting [1], the “Log2 (fold) (luciferase activity, log2 of the fold difference relative to DMSO controls)” value is on record as −0.455. Under setting [2], the “Fold (luciferase activity, fold difference relative to DMSO controls)” value stood at 0.729.
For `CC(C)n1cnc2c(NCc3ccccc3)nc(NCCO)nc21` [N9-Isopropylolomoucine] the same measures were −0.490 and 0.712.
As to `CCCOc1ccccc1-c1nc2nn[nH]c2c(=O)[nH]1` [zaprinast], under setting [3], the “Log2 (fold) of luciferase activity relative to DMSO controls” value is reported as −0.055. Under setting [4], the “Fold (luciferase activity relative to DMSO controls)” value worked out at 0.962 fold.
Take `CCCCCC=CCC=CCC=CCC1OC1CCCC(=O)O` (stereo not drawn) [5,6-EPOXYEICOSATRIENOIC ACID]: the “Log2 (fold) of luciferase activity relative to DMSO controls” value under setting [3] is listed as −0.164. Under setting [4], the “Fold (luciferase activity relative to DMSO controls)” value amounted to 0.892 fold.
With `Nc1cc(N2CCCCC2)nc(N)[n+]1[O-]` [MINOXIDIL], under setting [1], the “Log2 (fold) (luciferase activity, log2 of the fold difference relative to DMSO controls)” value is recorded as −0.292. Moreover, the “Fold (luciferase activity, fold difference relative to DMSO controls)” value under setting [2] was determined as 0.817.
For the compound `C1CCC(N=C(NC23CC4CC(CC(C4)C2)C3)N2CCOCC2)CC1.Cl` [U-37883A], the “Log2 (fold) (luciferase activity, log2 of the fold difference relative to DMSO controls)” value under setting [1] is reported as −0.572. In addition, under setting [2], the “Fold (luciferase activity, fold difference relative to DMSO controls)” value was 0.673.
